# Experimental data reported in ChEMBL document CHEMBL1250444, “Nitric oxide activates TRP channels by cysteine S-nitrosylation” (Nat Chem Biol, 2006).
# Calls of active or inactive are those of the source. The rule behind the calls is not given here.
# Key:
# [1] = target: Transient receptor potential cation channel subfamily M member 2 (Homo sapiens) (UniProt O94759); assay: Induction of TRPM2 S-nitrosylation in HEK cells assessed as increase in Ca2+ level from extracellular space at 30 uM; format: cell-based; details: HEK293
# Transient receptor potential cation channel subfamily M member 2 (Homo sapiens), sequence (O94759 whole entry): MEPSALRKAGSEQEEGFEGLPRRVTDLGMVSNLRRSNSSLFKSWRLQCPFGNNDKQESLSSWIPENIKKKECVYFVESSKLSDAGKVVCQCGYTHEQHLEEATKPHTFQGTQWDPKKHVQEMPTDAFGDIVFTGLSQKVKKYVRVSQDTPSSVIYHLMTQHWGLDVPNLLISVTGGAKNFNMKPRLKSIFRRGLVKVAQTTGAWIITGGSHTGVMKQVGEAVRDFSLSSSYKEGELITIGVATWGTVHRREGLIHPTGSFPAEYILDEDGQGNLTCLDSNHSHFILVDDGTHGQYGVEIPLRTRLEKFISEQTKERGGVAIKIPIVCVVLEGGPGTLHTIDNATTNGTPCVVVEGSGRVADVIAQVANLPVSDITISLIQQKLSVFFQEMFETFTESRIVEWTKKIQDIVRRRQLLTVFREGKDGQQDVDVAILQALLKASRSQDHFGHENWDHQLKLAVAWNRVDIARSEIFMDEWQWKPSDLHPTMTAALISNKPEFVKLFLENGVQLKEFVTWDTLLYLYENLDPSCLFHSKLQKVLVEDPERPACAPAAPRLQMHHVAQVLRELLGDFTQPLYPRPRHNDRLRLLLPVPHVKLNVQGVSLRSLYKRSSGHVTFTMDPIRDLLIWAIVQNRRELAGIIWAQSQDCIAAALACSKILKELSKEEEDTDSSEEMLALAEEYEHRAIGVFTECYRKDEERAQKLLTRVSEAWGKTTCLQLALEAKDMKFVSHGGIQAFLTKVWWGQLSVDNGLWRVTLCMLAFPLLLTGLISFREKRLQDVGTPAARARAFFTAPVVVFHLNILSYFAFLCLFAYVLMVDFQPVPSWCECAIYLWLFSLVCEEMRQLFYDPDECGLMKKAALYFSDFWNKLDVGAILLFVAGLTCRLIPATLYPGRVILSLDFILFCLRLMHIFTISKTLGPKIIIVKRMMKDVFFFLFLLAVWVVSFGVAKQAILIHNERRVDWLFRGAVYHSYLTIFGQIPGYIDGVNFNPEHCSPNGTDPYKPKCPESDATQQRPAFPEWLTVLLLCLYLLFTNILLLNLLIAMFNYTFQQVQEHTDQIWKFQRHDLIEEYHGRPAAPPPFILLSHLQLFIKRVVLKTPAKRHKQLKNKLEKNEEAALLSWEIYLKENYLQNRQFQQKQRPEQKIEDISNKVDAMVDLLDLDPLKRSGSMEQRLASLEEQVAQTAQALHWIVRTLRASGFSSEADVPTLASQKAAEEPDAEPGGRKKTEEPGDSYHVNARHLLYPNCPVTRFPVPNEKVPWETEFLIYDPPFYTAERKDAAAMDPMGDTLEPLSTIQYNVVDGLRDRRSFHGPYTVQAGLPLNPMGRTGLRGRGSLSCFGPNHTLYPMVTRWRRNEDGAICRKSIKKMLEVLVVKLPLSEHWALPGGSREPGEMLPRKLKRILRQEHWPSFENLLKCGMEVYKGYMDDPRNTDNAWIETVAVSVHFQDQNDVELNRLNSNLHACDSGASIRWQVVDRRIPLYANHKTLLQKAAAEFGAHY
# [2] = target: T1, Short transient receptor potential channel 5 (Homo sapiens) (UniProt Q9UL62); assay: Activation of TRPC5 expressed in BAEC expressing TRPC5 siRNA assessed as increase in Ca2+ level from extracellular space at 300 uM
# T1 sequence (whole entry): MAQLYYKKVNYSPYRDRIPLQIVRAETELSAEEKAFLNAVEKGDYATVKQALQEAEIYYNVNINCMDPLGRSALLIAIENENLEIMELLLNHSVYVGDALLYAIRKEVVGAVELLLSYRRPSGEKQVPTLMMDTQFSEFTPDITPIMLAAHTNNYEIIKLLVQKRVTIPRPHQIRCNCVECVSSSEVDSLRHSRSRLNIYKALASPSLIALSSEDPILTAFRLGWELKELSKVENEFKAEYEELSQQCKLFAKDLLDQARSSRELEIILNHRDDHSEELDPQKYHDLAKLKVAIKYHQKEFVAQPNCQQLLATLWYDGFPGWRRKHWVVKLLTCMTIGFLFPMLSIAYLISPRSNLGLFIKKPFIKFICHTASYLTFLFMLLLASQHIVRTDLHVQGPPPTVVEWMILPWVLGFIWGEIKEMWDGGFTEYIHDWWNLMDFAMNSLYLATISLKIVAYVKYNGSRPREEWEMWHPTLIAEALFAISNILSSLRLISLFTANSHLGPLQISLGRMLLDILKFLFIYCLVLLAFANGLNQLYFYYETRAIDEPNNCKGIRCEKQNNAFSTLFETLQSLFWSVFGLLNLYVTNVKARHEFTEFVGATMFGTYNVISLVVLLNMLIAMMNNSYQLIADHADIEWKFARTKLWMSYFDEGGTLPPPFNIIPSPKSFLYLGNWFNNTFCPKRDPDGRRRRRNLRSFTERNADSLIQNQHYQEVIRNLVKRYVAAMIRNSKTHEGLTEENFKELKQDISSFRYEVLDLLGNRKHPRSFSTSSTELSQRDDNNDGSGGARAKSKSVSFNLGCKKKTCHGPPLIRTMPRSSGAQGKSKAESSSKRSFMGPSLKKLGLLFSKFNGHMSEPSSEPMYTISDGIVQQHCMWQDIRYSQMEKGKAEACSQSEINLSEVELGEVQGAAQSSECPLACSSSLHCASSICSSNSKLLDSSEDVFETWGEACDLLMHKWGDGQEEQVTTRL
Activity [1],Activity [2],SMILES
inactive,,O=[N+]([O-])c1ccc(SSc2ccc([N+](=O)[O-])cn2)nc1
,inactive,CC(=O)N[C@@H](C(=O)O)C(C)(C)SN=O (racemic)
